The text below walks through data of US20260060970A1, “Use of a Therapeutic Agent with Phosphodiesterase-7 Inhibitory Activity for the Treatment and Prevention of Diseases Associated with Chronic Fatigue, Exhaustion and/or Exertional Intolerance” (MITODICURE GMBH, priority 2022, published 2026).

Broadly, the IC50 is the midpoint of a concentration-inhibition curve.

For test [1], the system named is isolated rat soleus muscle. In words: Ex vivo model: residual contractile force of isolated rat soleus muscle in high KCl buffer (Na+/K+ATPase activation). The following applies: for Mean residual contractile force in % (SEM in %): after 30 min in KCl 12.5 mM buffer. From the text:
Muscular fatigue and loss of force (e.g., loss of handgrip strength) is a hallmark in ME/CFS patients. A main target of PDE7 inhibition is the skeletal muscle whose energetic function is deeply disturbed in ME/CFS and which is presumed to be very important in the symptomatology of ME/CFS. Insufficient stimulation of the Na^+/K^+ATPase plays a key role in the development of the disturbances by a rise in intramuscular sodium that finally leads to calcium overload. The latter causes a deep functional energetic disturbance or damage. The isolated rat muscle either soleus muscle or extensor digitorum longus muscle is a well-characterized and well-validated model for the study of the function of the Na^+/K^+ATPase. The isolated rat soleus muscle is particularly appropriate for experiments ex vivo as it is very thin so that there is no need for blood supply. […] In the experimental setting used, the high KCl concentration buffer causes partial depolarization that leads to sodium influx to disturb and to decrease excitability to subsequently reduce muscle force. Stimulation of Na^+/K^+ATPase lowers intracellular sodium levels towards physiological levels to restore excitability and muscular force during electrical stimulation.
The decline in force in the soleus muscle can be considered as muscular fatigue and related to the loss of hand grip muscular strength in ME/CFS patients. As the phosphodiesterase isoenzyme subtype 7 (PDE7) is the predominant PDE isoenzyme in skeletal muscle to raise cAMP this ex vivo model is suited for the testing the effect of PDE7 inhibitors and in particular their effect on force generation disturbed by mechanisms that worsen excitability or the energetic situation. […] High level activity of Na^+/K^+ATPase stimulated by cAMP can counteract the decrease in excitability and the loss of force.
Muscle preparation and incubation: Female Sprague Dawley rats of 5 weeks of age were used. After isoflurane anesthesia and cervical dislocation the intact soleus muscles of the animals were dissected. The soleus muscles were mounted at resting length in a vertical position between two field stimulation electrodes (thick copper wires) in organ bathes containing 15 mL incubation medium. The lower end of the muscle was fixed to a clip fixed to the bottom of the organ bath, the upper end of the muscle was fixed to an isometric force transducer (Force transducer K300 Hugo Sachs) by a clip allowing measurement of isometric contractions, and a tension of 100 mN was applied.
Force measurement: The experimental set-up used for force measurements allowed for the simultaneous recordings from 6 muscles in separate incubation chambers in parallel. Force was recorded and stored with a Notocord HEM data acquisition system. […] Incubation took place at 30° C. […] Electrical stimulation protocol: After an equilibration period of 30 min muscles were field-stimulated to deliver optimal force at 83 Hz, 2-3 ms pulses, 12 V (biphasic), 0.2-0.5 s train width with a Hugo Sachs stimulator (HSE). […] Stimulations were then performed every 5 min for 30 min. […] Two control groups were included.
The residual contractile force after 30 min in high KCl buffer was chosen as the efficacy parameter and related to the last value of stimulated force in the initial buffer in the same organ bath. The percentages of residual force were compared between the different groups and used for statistical calculation.

For the next test, the system named is PDE7. In words: PDE7 enzymatic assay, IC50 determination (PDE7). The format is biochemical. Particulars: human recombinant enzyme, 0.1 μM FAM-cAMP, 30 min 25° C. As for the experimental part: (§1) The ability of compounds to inhibit PDE7 may be measured using the following assay protocal: Assay methods for IC50 determination of PDE7 and variants involve as enzyme source human recombinant insect Sf9 cells. The substrate is 0.1 μM FAM-cAMP and the vehicle is 1.0% DMSO or 1.0% PEG 400. Pre-incubation time and temperature are 15 minutes at 25° C. and incubation time and temperature are 30 minutes at 25° C. The incubation buffer consists of 10 mM Tris-HCl, PH 7.2, 10 mM MgCl2, 0.05% NaN3, and 0.1% phosphate-free BSA. The quantitation method used is spectrofluorimetric quantitation of Fluorescein-AMP-IMAP. IBMX reference standards are run as an integral part of each assay to ensure the validity of the results obtained. The IC50 is the concentration of the compound (inhibitor) tested in the assay which makes it possible to reduce the enzymatic activity of PDE7 by 50%. IC50 values are finally determined by a non-linear, least squares regression analysis using MathIQ™ (ID Business Solutions Ltd., UK).
(§2) The compounds to be tested as PDE7 inhibitors were initially dissolved in vehicle at a concentration of 30 mM. These solutions were tested as the highest test concentration and then further diluted in cascade always in a ratio of 1:6 to obtain solutions with the desired lower test concentrations. Each assay was carried out in duplicate.

The target of a further test is T1, PDE7A (Homo sapiens, UniProt Q13946).
T1 construct: host or cells: Sf9 insect cells
T1 sequence (Q13946 whole entry): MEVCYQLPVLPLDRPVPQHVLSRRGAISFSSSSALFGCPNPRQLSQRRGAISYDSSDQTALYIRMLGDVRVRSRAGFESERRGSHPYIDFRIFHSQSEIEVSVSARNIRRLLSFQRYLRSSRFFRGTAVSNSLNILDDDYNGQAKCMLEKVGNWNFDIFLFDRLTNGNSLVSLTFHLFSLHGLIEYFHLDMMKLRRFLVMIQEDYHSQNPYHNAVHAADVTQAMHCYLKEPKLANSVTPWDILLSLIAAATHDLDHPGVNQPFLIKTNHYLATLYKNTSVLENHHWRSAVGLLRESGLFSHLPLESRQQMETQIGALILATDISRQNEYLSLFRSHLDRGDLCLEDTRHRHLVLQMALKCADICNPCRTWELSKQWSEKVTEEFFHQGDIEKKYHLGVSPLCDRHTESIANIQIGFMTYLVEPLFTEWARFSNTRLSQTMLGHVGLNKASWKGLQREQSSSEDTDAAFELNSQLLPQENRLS
In words: PDE7 enzymatic assay, IC50 determination (PDE7A). The format is biochemical. Particulars: human recombinant enzyme, 0.1 μM FAM-cAMP, 30 min 25° C. As for the experimental part:
as §1, §2

In another test the target is T2, PDE7B (Homo sapiens, UniProt Q9NP56).
T2 construct: host or cells: Sf9 insect cells
T2 sequence (Q9NP56 whole entry): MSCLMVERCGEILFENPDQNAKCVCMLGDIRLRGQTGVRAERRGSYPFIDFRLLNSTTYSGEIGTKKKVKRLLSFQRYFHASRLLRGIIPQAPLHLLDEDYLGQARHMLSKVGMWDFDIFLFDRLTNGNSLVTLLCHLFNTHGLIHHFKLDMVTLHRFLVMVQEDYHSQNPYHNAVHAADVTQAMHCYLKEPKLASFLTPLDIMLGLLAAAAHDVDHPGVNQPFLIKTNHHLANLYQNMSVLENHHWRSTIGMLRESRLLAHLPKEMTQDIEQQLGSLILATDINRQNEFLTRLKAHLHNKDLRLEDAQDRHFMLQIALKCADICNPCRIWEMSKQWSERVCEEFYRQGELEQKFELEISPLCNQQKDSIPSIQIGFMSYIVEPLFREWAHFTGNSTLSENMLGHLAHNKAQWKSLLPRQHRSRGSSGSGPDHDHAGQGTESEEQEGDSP
In words: PDE7 enzymatic assay, IC50 determination (PDE7B). The format is biochemical. The following applies: human recombinant enzyme, 0.1 μM FAM-cAMP, 30 min 25° C. As for the experimental part: as §1, §2

The next test relates to PDE7 enzyme. The following applies: cited from earlier work.

For `Cc1ccc([N+](=O)[O-])cc1S(=O)(=O)N(C)C` [Formula No. 8A], in test [1] (4.5 μM in the presence of salbutamol 1 μM), the “Mean residual contractile force in % (SEM in %)” value is on record as 80.2 (6.0); n = 15; p < 0.001%.
Regarding `Cc1nn(C2CCCCC2)c2sc(C(=O)NCC(C)(C)CN3C(=O)CNC3=O)cc12` [Formula No. 6G], in the test with PDE7, the IC50 worked out at 20 nM.
With `COc1ccc(Cn2c(=O)c3cc(OC(CF)CF)c(F)cc3n(C3CCN(C=O)CC3)c2=O)cc1OC` [Formula No. 55E], in test [1] (29 nM in the presence of salbutamol 1 μM), the “Mean residual contractile force in % (SEM in %)” value was 69.3 (4.1); n = 5; p < 0.01%. Besides, the half-inhibitory concentration (IC50) on PDE7A was 14.2 nM; at PDE7B, 83 nM.
In the case of `Cc1nn(C2CCCCC2)c2sc(C(=O)N[C@H](C)CN3C(=O)CNC3=O)cc12` [Formula No. 6H], the 50% inhibitory concentration (IC50) in the test on PDE7 was determined as 34 nM.
For the molecule `O=C1Nc2c(Cl)ccc(O[C@H]3C[C@H](C(=O)O)C3)c2C2(CCCCC2)N1` [Formula No. 44A], the “Mean residual contractile force in % (SEM in %)” value in test [1] (26 nM in the presence of salbutamol 1 μM) is 63.5 (7.8); n = 6; p < 0.01%. Besides, the values for the IC50 on PDE7A and at PDE7B were 26 nM and 72 nM, respectively.
Turning to `CC(C)Cn1c(=O)n(C)c(=O)c2[nH]cnc21` [IBMX, 3-isobutyl-1-methylxanthine, reference compound], the IC50 at PDE7A was 10000 nM.
With `O=C1Nc2c(Cl)ccc(Oc3ccccc3-c3nnn[nH]3)c2C2(CCCCC2)N1` [Formula No. 35A], the half-inhibitory concentration (IC50) at PDE7A came out at 0.3 nM; on PDE7B it was 0.9 nM.
Take `CC(C)(C)NCC(O)c1ccc(O)c(CO)c1` (stereo not shown) [Salbutamol, reference compound]: the “Mean residual contractile force in % (SEM in %)” value in test [1] (salbutamol alone 1 μM) was 26.5 (3.9); n = 30%.
Turning to `Cc1nn(C2CCCCC2)c2sc(C(=O)Nc3ccc(C(=O)N(C)C)cc3)cc12` [Formula No. 6C], the IC50 in the test on PDE7 is 14 nM.
As to `COc1ccc(C2CNC(=O)C2)cc1OC1CCCC1` (stereo not shown) [rolipram], in the test on PDE7 enzyme, the “inhibition of PDE7 by rolipram” value is given as “not inhibited”.
As for `CC(=O)Nc1ccc(NC(=O)c2cc3c(C)nn(C4CCCCC4)c3s2)cc1` [Formula No. 6D], the IC50 with PDE7 turned out to be 37 nM.
Consider `S=c1[nH]c2ccccc2c(=S)n1-c1ccccc1` [Formula No. 42A, 3-phenyl-2,4(1H,3H)-quinazolinedithione], for which the “Mean residual contractile force in % (SEM in %)” value in test [1] (3.5 μM in the presence of salbutamol 1 μM) is reported as 48.5 (8.6); n = 7; p < 0.05%.
As for `OCCN(CCO)c1nc(N2CCCCC2)c2nc(N(CCO)CCO)nc(N3CCCCC3)c2n1` [Dipyridamole, 2,2′,2″,2′″-[[4,8-Di(piperidin-1-yl)pyrimido[5,4-d]pyrimidine-2,6-diyl]dinitrilo]tetraethanol, reference compound], in test [1] (30 μM in the presence of salbutamol 1 μM), the “Mean residual contractile force in % (SEM in %)” value is given as 46.3 (6.3); n = 15; p < 0.01%. Also, in test [1] (test compound plus salbutamol 1 μM, KCl 12.5 mM buffer), the “effect on residual contractile force compared with salbutamol alone” value was “numerically stronger effect than salbutamol alone”. In addition, on PDE7A, the half-inhibitory concentration (IC50) was found to be 42000 nM.
`Cc1nn(C2CCCCC2)c2sc(C(=O)Nc3ccc(N4CCNC4=O)nc3)cc12` [Formula No. 6A]: in the test on PDE7, the IC50 stood at 20 nM.
On to `Cc1nn(C2CCOCC2)c2sc(C(=O)N[C@H]3CC[C@H](N4CCOCC4)CC3)cc12` [Formula No. 6E], for which, in the test on PDE7, the half-inhibitory concentration (IC50) was 24 nM.
Turning to `CC(=O)N1CCN([C@H]2CC[C@H](NC(=O)c3cc4c(C)nn(C5CCOCC5)c4s3)CC2)CC1` [Formula No. 6F], the half-maximal inhibitory concentration (IC50) with PDE7 amounted to 19 nM.
For `O=CN1CCC(n2c(=O)n(Cc3ccc(-c4cccs4)cc3)c(=O)c3cc(OC(CF)CF)c(F)cc32)CC1` [Formula No. 55J], the 50% inhibitory concentration (IC50) with PDE7 is below 100 nM.
Take `CNC(=O)c1ccc(NC(=O)c2cc3c(C)nn(C4CCCCC4)c3s2)cn1` [Formula No. 6B]: in test [1] (0.99 μM in the presence of salbutamol 1 μM), the “Mean residual contractile force in % (SEM in %)” value was 50.7 (3.6); n = 6; p < 0.05%. For the same molecule, the IC50 in the test on PDE7 was 33 nM; at PDE7A it was 11.1 nM; at PDE7B it was 53 nM.
